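A five-concentration, 48-hour dose response in 96-well plates underlies each endpoint, interpolated linearly between surrounding concentrations. GI50 is the concentration that inhibits growth by half.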 The source made the active and inactive calls. Cut-off read from the data, not from the text of the source: active = GI50 up to about 1.1 µM and inactive = higher.
Tests used:
Assay in all cases: growth of human tumour cells (NCI), 48 h
[1] = test system: RXF 393
[2] = test system: T47D
[3] = test system: MOLT-4
[4] = test system: SR
[5] = test system: U-251
[6] = test system: A498
[7] = test system: UACC-62
[8] = test system: NCI/ADR-RES
[9] = test system: Malme-3M
[10] = test system: SK-OV-3
[11] = test system: UACC-257
[12] = test system: SK-MEL-2
[13] = test system: PC-3
[14] = test system: EKVX
[15] = test system: OVCAR-3
[16] = test system: HCT-116
[17] = test system: 786-0
[18] = test system: HT-29
[19] = test system: IGROV-1
[20] = test system: SNB-75

Measured: GI50

O=P(O)(O)CCP(=O)(O)O
inactive: [1] > 100 µM | [2] > 100 µM | [3] > 100 µM | [4] > 100 µM | [5] > 100 µM | [6] > 100 µM | [7] > 100 µM | [8] > 100 µM | [9] > 100 µM | [10] > 100 µM | [11] 5.62 µM | [12] > 100 µM | [13] > 100 µM | [14] > 100 µM | [15] > 100 µM | [16] > 100 µM | [17] > 100 µM | [18] > 100 µM | [19] > 100 µM

COP(=O)(OC)/C(=C\c1cn(C(c2ccccc2)(c2ccccc2)c2ccccc2)cn1)NC(C)=O
inactive: [1] 30.6 µM | [2] > 100 µM | [3] 34.4 µM | [4] 81.8 µM | [5] > 100 µM | [6] > 100 µM | [7] > 100 µM | [8] > 100 µM | [9] > 100 µM | [10] > 100 µM | [11] 62.5 µM | [13] > 100 µM | [14] > 100 µM | [15] > 100 µM | [16] 58.5 µM | [17] > 100 µM | [20] > 100 µM | [18] 68.5 µM | [19] > 100 µM

Cc1cc(C)n(CN(Cn2nc(C)cc2C)C2CCCCC2)n1
inactive: [1] 22.4 µM | [2] 28.2 µM | [4] 30.1 µM | [5] 32.1 µM | [6] > 100 µM | [7] 21.5 µM | [8] 19.8 µM | [9] 20.5 µM | [10] 38 µM | [11] 28.1 µM | [12] 17.6 µM | [13] 22.9 µM | [14] 31.8 µM | [15] 25.9 µM | [16] 22.4 µM | [17] 23.1 µM | [20] 17.1 µM | [18] 21.1 µM | [19] 20.1 µM

COC(=O)c1ccccc1C#CCCCOS(C)(=O)=O
inactive: [1] > 10 µM | [2] > 10 µM | [3] > 10 µM | [4] > 10 µM | [5] > 10 µM | [6] > 10 µM | [7] > 10 µM | [8] > 10 µM | [9] > 10 µM | [10] > 10 µM | [11] > 10 µM | [12] > 10 µM | [13] > 10 µM | [14] > 10 µM | [15] > 10 µM | [16] > 10 µM | [17] > 10 µM | [18] > 10 µM | [19] > 10 µM

CSc1nc(=O)c(C#N)c(-c2ccccc2)n1C1OC(COC(C)=O)C(OC(C)=O)C(OC(C)=O)C1OC(C)=O (centres undefined)
inactive: [1] 94.4 µM | [2] 86.3 µM | [3] > 100 µM | [4] > 100 µM | [5] > 100 µM | [6] > 100 µM | [7] > 100 µM | [8] > 100 µM | [9] 69.3 µM | [10] > 100 µM | [11] > 100 µM | [12] > 100 µM | [13] 52.2 µM | [14] > 100 µM | [15] 78.3 µM | [16] 79.4 µM | [17] 82.6 µM | [20] 42.5 µM | [18] > 100 µM | [19] > 100 µM

O=C(/C=C/c1ccccc1)Nc1ccccc1SCCCCl
inactive: [1] 8.43 µM | [2] 7.52 µM | [3] 12.7 µM | [4] 9.38 µM | [5] 8.93 µM | [6] 9.08 µM | [7] 6.9 µM | [8] 3.66 µM | [9] 10.7 µM | [10] 8.41 µM | [11] 18.2 µM | [12] 22.2 µM | [13] 9.91 µM | [14] 15.4 µM | [15] 13.1 µM | [16] 8.91 µM | [17] 13.4 µM | [20] 17.7 µM | [18] 7.94 µM | [19] 1.18 µM

Br[C@@H]1[C@H]2c3nc4ccccc4nc3[C@@H]1C[C@H]2Br
inactive: [1] 37.7 µM | [2] 36.8 µM | [3] 31.7 µM | [4] 48.9 µM | [5] 69.2 µM | [6] 46.2 µM | [7] > 100 µM | [8] 51.4 µM | [9] > 100 µM | [10] > 100 µM | [11] 83.6 µM | [13] 68.4 µM | [14] 86.1 µM | [15] 76.9 µM | [16] 59.7 µM | [17] > 100 µM | [18] 58.6 µM | [19] > 100 µM

— ChEMBL document CHEMBL1201862, “PubChem BioAssay data set” (2004)
